Experimental data from ChEMBL document CHEMBL5344406, “1,2,3-Triazole-containing hybrids with potential antibacterial activity against ESKAPE pathogens” (2022).
Converted amounts (≈) assume the structure as drawn. One block for each compound: values may come before it.

What was measured:
Type in all cases: functional
[1] = test system: Staphylococcus aureus; test: Antibacterial activity against Staphylococcus aureus assessed as bacterial growth inhibition by dilution method
[2] = test system: Staphylococcus aureus; test: Antibacterial activity against methicillin- resistant Staphylococcus aureus assessed as bacterial growth inhibition by dilution method
[3] = test system: Staphylococcus aureus; test: Potency index, ratio of Linezolid MIC to test compound MIC for antibacterial activity against methicillin- resistant Staphylococcus aureus assessed as bacterial growth inhibition by dilution method
[4] = test system: Klebsiella pneumoniae; test: Antibacterial activity against Klebsiella pneumoniae NCDC 138 assessed as bacterial growth inhibition incubated for 24 hrs by serial dilution method
[5] = test system: Escherichia coli; test: Antibacterial activity against Escherichia coli MTCC 443 assessed as bacterial growth inhibition incubated for 24 hrs by serial dilution method
[6] = test system: Pseudomonas aeruginosa; test: Antibacterial activity against Pseudomonas aeruginosa assessed as bacterial growth inhibition by broth dilution method
[7] = test system: Klebsiella pneumoniae; test: Antibacterial activity against Klebsiella pneumoniae assessed as bacterial growth inhibition by broth dilution method
[8] = test system: Pseudomonas aeruginosa; test: Potency index, ratio of Penicillin MIC to test compound MIC for antibacterial activity against Pseudomonas aeruginosa assessed as bacterial growth inhibition by broth dilution method
[9] = test system: Klebsiella pneumoniae; test: Potency index, ratio of Penicillin MIC to test compound MIC for antibacterial activity against Klebsiella pneumoniae assessed as bacterial growth inhibition by broth dilution method
[10] = test system: Staphylococcus aureus; test: Antibacterial activity against Staphylococcus aureus ATCC 25923 assessed as bacterial growth inhibition incubated for 18 to 20 hrs by broth microdilution method; conditions: time 18-20 hrs
[11] = test system: Staphylococcus aureus; test: Antibacterial activity against Staphylococcus aureus ATCC 29213 assessed as bacterial growth inhibition incubated for 16 to 20 hrs by CLSI based broth microdilution method; conditions: time 16-20 hrs
[12] = test system: Escherichia coli; test: Antibacterial activity against Escherichia coli ATCC 25922 assessed as bacterial growth inhibition incubated for 16 to 20 hrs by CLSI based broth microdilution method; conditions: time 16-20 hrs
[13] = test system: Pseudomonas aeruginosa; test: Antibacterial activity against Pseudomonas aeruginosa ATCC 27853 assessed as bacterial growth inhibition incubated for 16 to 20 hrs by CLSI based broth microdilution method; conditions: time 16-20 hrs
[14] = test system: Staphylococcus aureus; test: Antibacterial activity against methicillin-resistant Staphylococcus aureus assessed as bacterial growth inhibition incubated for 18 hrs by absorbance based assay
[15] = test system: Klebsiella pneumoniae; test: Antibacterial activity against multi-drug Klebsiella pneumoniae assessed as bacterial growth inhibition incubated for 18 hrs by absorbance based assay
[16] = test system: Acinetobacter baumannii; test: Antibacterial activity against Acinetobacter baumannii assessed as bacterial growth inhibition incubated for 18 hrs by absorbance based assay
[17] = test system: Escherichia coli; test: Antibacterial activity against Escherichia coli assessed as bacterial growth inhibition incubated for 18 hrs by absorbance based assay
[18] = test system: Escherichia coli; test: Antibacterial activity against Escherichia coli assessed as bacterial growth inhibition
[19] = test system: Staphylococcus aureus; test: Antibacterial activity against Staphylococcus aureus assessed as bacterial growth inhibition
[20] = test system: Staphylococcus aureus; test: Antibacterial activity against Staphylococcus aureus assessed as bacterial growth inhibition by broth dilution method
[21] = test system: Bacillus subtilis; test: Antibacterial activity against Bacillus subtilis assessed as bacterial growth inhibition
[22] = test system: Staphylococcus aureus; test: Antibacterial activity against Staphylococcus aureus 209p ATCC 6538P assessed as bacterial growth inhibition incubated for 1 to 2 days by serial dilution method; conditions: time 1-2 day
[23] = test system: Escherichia coli; test: Antibacterial activity against Escherichia coli JM109 assessed as bacterial growth inhibition incubated for 18 to 20 hrs by broth microdilution method; conditions: time 18-20 hrs
[24] = test system: Bacillus subtilis; test: Antibacterial activity against Bacillus subtilis assessed as bacterial growth inhibition incubated for 18 to 20 hrs by broth microdilution method; conditions: time 18-20 hrs
[25] = test system: Staphylococcus epidermidis; test: Antibacterial activity against Staphylococcus epidermidis assessed as bacterial growth inhibition by broth dilution method
[26] = test system: Staphylococcus aureus; test: Potency index, ratio of streptomycin MIC to test compound MIC for antibacterial activity against Staphylococcus aureus assessed as bacterial growth inhibition by broth dilution method
[27] = test system: Staphylococcus epidermidis; test: Potency index, ratio of streptomycin MIC to test compound MIC for antibacterial activity against Staphylococcus epidermidis assessed as bacterial growth inhibition by broth dilution method
[28] = test system: Staphylococcus aureus; test: Antibacterial activity against Staphylococcus aureus assessed as bacterial growth inhibition by agar well diffusion method
[29] = test system: Escherichia coli; test: Antibacterial activity against Escherichia coli assessed as bacterial growth inhibition by agar well diffusion method
[30] = test system: Pseudomonas aeruginosa; test: Antibacterial activity against Pseudomonas aeruginosa assessed as bacterial growth inhibition by agar well diffusion method
[31] = test system: Bacillus subtilis; test: Antibacterial activity against Bacillus subtilis assessed as bacterial growth inhibition by agar well diffusion method

Structure (SMILES): CC(=O)NC[C@H]1CN(c2ccc(-n3cc(-c4ncccn4)nn3)c(F)c2)C(=O)O1
MIC [1]: 2 µg/mL (≈ 5.03 µM)
MIC [2]: 0.5 µg/mL (≈ 1.26 µM)
Ratio [3]: 4

Structure (SMILES): CC1(C)O[C@@H]2[C@@H](CC[C@]3(COC(C)(C)O3)[C@H]2OCc2cn(-c3c(Cl)cc(Cl)cc3Cl)nn2)O1
MIC [6]: 1.17 µg/mL (≈ 2.26 µM)
MIC [7]: 9.37 µg/mL (≈ 18.1 µM)
Ratio [8]: 16
Ratio [9]: 4

Structure (SMILES): Cc1ccc(S(=O)(=O)OCCn2cc(COc3cccc4cccnc34)nn2)cc1
MIC [14]: 75.4 µg/mL (≈ 178 µM)
MIC [15]: 75.4 µg/mL (≈ 178 µM)
MIC [16]: 75.4 µg/mL (≈ 178 µM)
MIC [17]: 75.4 µg/mL (≈ 178 µM)

Structure (SMILES): CN[C@@H]1[C@H](O[C@H]2[C@H](O[C@H]3[C@H](O)[C@@H](O)[C@H](N=C(N)N)[C@@H](O)[C@@H]3N=C(N)N)O[C@@H](C)[C@]2(O)C=O)O[C@@H](CO)[C@H](O)[C@H]1O [STREPTOMYCIN]
MIC [18]: 6.25 µg/mL (≈ 10.7 µM)
MIC [19]: 6.25 µg/mL (≈ 10.7 µM)
MIC [20]: 9.36 µg/mL (≈ 16.1 µM)
MIC [21]: 6.25 µg/mL (≈ 10.7 µM)
MIC [22]: 1.89 µg/mL (≈ 3.25 µM)
MIC [23]: 1 µg/mL (≈ 1.72 µM)
MIC [24]: 2 µg/mL (≈ 3.44 µM)
MIC [25]: 4.68 µg/mL (≈ 8.05 µM)

Structure (SMILES): CC1(C)O[C@@H]2[C@@H](CC[C@]3(COC(C)(C)O3)[C@H]2OCc2cn(-c3cccc4ccccc34)nn2)O1
MIC [20]: 2.34 µg/mL (≈ 5.03 µM)
MIC [25]: 1.17 µg/mL (≈ 2.51 µM)
Ratio [26]: 4
Ratio [27]: 4

Further lines, results first:

MIC [4]: 12.5 µg/mL (≈ 29.7 µM)
MIC [5]: 25 µg/mL (≈ 59.3 µM)
Structure (SMILES): CC(C)(NS(=O)(=O)c1ccccc1)c1cn(-c2ccc(Br)cc2)nn1

MIC [10]: > 250 µg/mL
MIC [11]: > 250 µg/mL
MIC [12]: > 250 µg/mL
MIC [13]: > 250 µg/mL
Structure (SMILES): CC(=O)OC[C@@H]1O[C@H](n2cc(CNC(=O)c3ccc(-c4ccc(Br)cc4)o3)nn2)[C@@H](OC(C)=O)[C@H](OC(C)=O)[C@H]1OC(C)=O

MIC [28]: 0.5 µg/mL (≈ 0.9 µM)
MIC [29]: 0.5 µg/mL (≈ 0.9 µM)
MIC [30]: 0.5 µg/mL (≈ 0.9 µM)
MIC [31]: 0.5 µg/mL (≈ 0.9 µM)
Structure (SMILES): COc1ccc(-c2cc(-c3cccs3)nc(OCc3cn(CC(=O)Nc4ccc(C(C)=O)cc4)nn3)c2O)cc1
